One compound from patent EP1501797B1, “3-(SUBSTITUTED AMINO)-1H-INDOLE-2-CARBOXYLIC ACID ESTER AND 3-(SUBSTITUTED AMINO)-BENZO[B]THIOPHENE-2-CARBOXYLIC ACID ESTER DERIVATIVES AS INTERLEUKIN-4 GENE EXPRESSION INHIBITORS” (Aventis Pharmaceuticals Inc., priority 2002, dated 2003) can be followed below.

The structures appear in SMILES notation. Values joined by “and” are separate entries in the source; they are usually repeats but may differ in a detail not shown here. Equal values may be shown once.

A short description of data set [1]: Human primary Th2 cells, proliferation (viability, MTS assay). It is filed as cell-based. To be noted: human, th2 cells, MTS, read-out: Proliferation (% control) mean.
The subject of a further data set is human IL-4 promoter. Put plainly: IL-4 Luciferase assay in Jurkat cells (6.7-IL-4 Luc). The class given is cell-based. The following applies: Jurkat cell line; concentration not given.
For another data set, the system named is IgG2a Anti-DNP Antibody. Put plainly: In vivo model of humoral immunity in mice (DNP-KLH), IgG2a anti-DNP antibody. The method, then:
Female Balb/c mice, each weighing approximately 20 to 25 grams each, aged 5 to 8 weeks are used. Each experiment uses 30 mice.
The antigen for immunization is 2,4-dinitrophenyl (DNP) or 2,4,6-trinitrophenyl (TNP) conjugated to keyhole limpet haemocyanin (KLH). The antigen (100 µg/mouse) is adsorbed to an adjuvant (colloidal aluminum hydroxide) and given i.p. to animal in a total volume of 0.2-0.3 ml.
Animals are randomly divided into 5 groups of 6 mice each. Group 1 is a positive control group, Groups 2, 3, and 4 are test compound groups, and Group 5 is a vehicle control group. Compounds may be given by i.n., i.p., p.o., s.c., i.m. or i.v. administration. […] On day 8 after the immunization, mice are bled by cardiac puncture under anesthesia (isoflurane), and the serum samples are stored at -20°C until required for antibody analysis. The anesthetized animals are euthanized with overdosage of sodium pentobarbital at the end of experiment. Statistical analysis of the data are performed using ANOVA.
Mice are immunized with a hapten carrier conjugate, DNP-KLH, and anti-DNP antibody levels are determined in a isotype specific manner as described above. […]

Description for human IL-4 promoter: An IL-4 luciferase assay may be used to screen for compounds which modulate levels of IL-4 transcription.
Monoclonal lines, 1F7, F8 and C5 are derived from the stable transfected polyclonal population by the limiting dilution method and used for the assay. The monoclonal cell lines are cultured in the above described medium in the presence of 400 µg/ml G418.
The cells are harvested, resuspended in fresh media and plated at a density of 50,000 cells/well in 120 µL volume, in a 96 well plate and grown for 16 hours. Test compounds are added to the culture (in DMSO final concentration of 0.5 %) in replicates of 3 or 4 in a 15 µL volume. Typically, dose response curves are generated using three (10, 1 and 0.1 µM) or five concentrations (10, 1, 0.1, 0.01 and 0.001 µM). […] The stimulation process is terminated by the addition of 50 µL s of 1 x lysis buffer (25 mM Tris Phosphate, pH 7.8, 2.0 mM DTT, 2.0 mM EDTA, 100 ml/L glycerol, 1.0% Triton X-100 (v/v)). […]
All experimental plates included non-induced and induced control wells. […] The results generated from the assay are expressed as percent activity. […] The primary assay measured the effects of the ability of a compound to modulate the level of a reporter gene, luciferase, linked to a human IL-4 promoter transfected into a human Jurkat cell line.

As for `O=C(O)c1[nH]c2ccccc2c1Nc1ccncc1` [Example 28, 3-(4-Pyridinylamino)-1H-indole-2-carboxylic acid], the viability at 0.01 µM in data set [1] (0.01 µM) was found to be 89.5%. Further, the viability at 0.03 µM in data set [1] (0.03 µM) stood at 85%. In addition, the viability at 0.1 µM in data set [1] (0.1 µM) is 86.7%. The viability at 0.3 µM in data set [1] (0.3 µM) came out at 80.6%. The viability at 1 µM in data set [1] (1 µM) is 77.2%. Moreover, the viability at 3 µM in data set [1] (3 µM) turned out to be 72%. In data set [1] (10 µM), the viability at 10 µM came to 71.5%. For the same compound, the “6.7-IL-4 Luc (% of control)” value in the data set on human IL-4 promoter is 62 ± 29 % of control. The “IgG2a Anti-DNP Antibody Titer” value in the data set with IgG2a Anti-DNP Antibody (individual animals 1-6, dose not stated) is 30.59 and 38.60 and 14.09 and 17.45 and 30.21 and 27.98. For the same compound, the “IgG2a Anti-DNP Antibody Titer Mean+/-SE” value with IgG2a Anti-DNP Antibody (vehicle 30.47 +/-2.37, dose not stated) is 26.49 +/-3.72. The “IgG2a Anti-DNP Antibody Titer Inhibition” value in the data set on IgG2a Anti-DNP Antibody (versus vehicle) is listed as 13%.
